Patent US20240009204A1 (Starton Therapeutics, Inc., priority 2020, published 2024)
Marks after values point to notes of the source that are not given here.

Experiments:
[1] = clinical; details: human, plasma, po
[2] = test system: healthy female volunteers; test: Phase 1 study: antiemetic effect of oral olanzapine doses after apomorphine challenge; type: in vivo, human; details: for Nausea Score 1-120 min. / Nausea Score 1-120 min. (severity in words) / Retching (incidence) / Vomiting (incidence): apomorphine challenge day 8; for Nausea Score 1-120 min.: 1=no nausea, 10=severe nausea
Experimental: Twenty-four healthy female volunteers were enrolled. Four active-treatment groups and a cohort of placebo-treated subjects were evaluated.
Subjects were administered study drug once daily for 8 days. During this period, subjects maintained a study diary of their side effects. The subject diary was used to collect on a daily basis any adverse events including an assessment of the presence and/or intensity of sedation on a numeric scale where 1=no sedation and 10=excessive sedation.
On the 8th day, subjects were administered apomorphine at a dose of 0.05 mg/kg and assessed over 6 hours. During this period, subjects were asked to record episodes of nausea on a numeric scale every 15 minutes for the duration of assessment. The intensity of nausea was captured using a 1-10 rating scale where 1=no nausea and 10=severe nausea. Emesis intensity was also captured where 1=no emesis and 10=severe emesis. Episodes of retching or emesis were collected and measured for the absolute number of retches or vomits during the collection period and documented for the time of the specific event following the administration of the apomorphine.

[3] = oral, statistical integration of nausea scores and incidence of retching and vomiting

Cc1cc2c(s1)Nc1ccccc1N=C2N1CCN(C)CC1 [olanzapine, 2-methyl-10-(4-methyl-1-piperazinyl)-4H-thieno-[2,3-b][1.5]benzo-diazepine]
Cmax at 1 day ([1]; 4 mg): 4 to 6 ng/mL
Cmax at 1 day ([1]; 6 mg): 6 to 9 ng/mL
Nausea severity scores 0-120 min following apomorphine challenge, versus placebo ([2]; 2 mg and 8 mg doses): not significantly different than placebo
Nausea severity scores 0-120 min following apomorphine challenge, versus placebo ([2]; 4 mg and 6 mg steady state doses, p<0.05): significantly different than placebo
maximum intensity of nausea, compared between doses ([2]; between the 4 mg, 6 mg and 8 mg dose): no different
Nausea Score 1-120 min. ([2]; oral 2 mg a day for 8 days): 6**
Nausea Score 1-120 min. (severity in words) ([2]; oral 2 mg a day): Moderate
Retching (incidence) ([2]; oral 2 mg a day): 40%
Vomiting (incidence) ([2]; oral 2 mg a day): 40%
Nausea Score 1-120 min. ([2]; oral 4 mg a day for 8 days): 3.4 #
Nausea Score 1-120 min. (severity in words) ([2]; oral 4 mg a day): Mild
Retching (incidence) ([2]; oral 4 mg a day): 0%
Vomiting (incidence) ([2]; oral 4 mg a day): 20%
Nausea Score 1-120 min. ([2]; oral 6 mg a day for 8 days): 3.7 #
Nausea Score 1-120 min. (severity in words) ([2]; oral 6 mg a day): Mild
Retching (incidence) ([2]; oral 6 mg a day): 0%
Vomiting (incidence) ([2]; oral 6 mg a day): 0%
Nausea Score 1-120 min. ([2]; oral 8 mg a day for 8 days): 5**
Nausea Score 1-120 min. (severity in words) ([2]; oral 8 mg a day): Mild
Retching (incidence) ([2]; oral 8 mg a day): 20%
Vomiting (incidence) ([2]; oral 8 mg a day): 20%
minimum effective dose for nausea [2, 3]: 4 mg a day
optimal dose for nausea and vomiting [2, 3]: 6 mg a day
